In this assay the test system is RSV strain A2. The assay can be described thus: in vitro cytoprotection assay against RSV in Hep2 cells. Particulars: human respiratory syncytial virus, HEp-2, 96 h; 1 uM compound; RSV-induced cytopathic effect in Hep2 cells, 4 days, Cell TiterGlo; read-out: RSV % inh. @ 1 uM. The class given is cell-based. As for the experimental part: Antiviral activity against RSV was determined using an in vitro cytoprotection assay in Hep2 cells. […] The method used is similar to methods previously described in Chapman J et al., “RSV604 a novel inhibitor of respiratory syncytial virus replication,” Antimicrob Agents Chemother, 51(9):3346-53 (2007).
Hep2 cells were obtained from ATCC (Manassas, Va.) and maintained in MEM media supplemented with 10% fetal bovine serum and penicillin/streptomycin. Cells were passaged twice a week and kept at subconfluent stage. Commercial stock of RSV strain A2 (Advanced Biotechnologies, Columbia, Md.) was titered before compound testing to determine the appropriate dilution of the virus stock that generates desirable cytopathic effect in Hep2 cells.
For antiviral tests, Hep2 cells were seeded into 96-well plates 24 hours before the assay at a density of 3,000 cells/well. On a separate 96well plate, tested compounds were serially diluted in cell culture media. Eight concentrations in 3-fold serial dilution increments were prepared for each tested compound and 100 uL/well of each dilution was transferred in duplicate onto plates with seeded Hep2 cells. Subsequently, appropriate dilution of virus stock previously determined by titration was prepared in cell culture media and 100 uL/well was added to test plates containing cells and serially diluted compounds. Each plate included three wells of infected untreated cells and three wells of uninfected cells that served as 0% and 100% virus inhibition control, respectively. Following the infection with RSV, testing plates were incubated for 4 days in a tissue culture incubator. After the incubation, RSV-induced cytopathic effect was determined using a Cell TiterGlo reagent (Promega, Madison, Wis.) followed by a luminescence read-out. The percentage inhibition was calculated for each tested concentration relative to the 0% and 100% inhibition controls and the EC50 value for each compound was determined by non-linear regression as a concentration inhibiting the RSV-induced cytopathic effect by 50%. Ribavirin (purchased from Sigma, St. Louis, Mo.) was used as a positive control for antiviral activity.

In the case of `NC(=O)c1cc2c(s1)-c1ccccc1N(C(=O)c1ccc(NC(=O)c3cccnc3N3CCCC3)cc1)CC2` [Example 61], the inhibition at 1 µM worked out at 84%. Consider `CN(C)C(=O)c1cc2c(s1)-c1ccccc1N(C(=O)c1ccc(NC(=O)c3cccnc3N3CCCC3)cc1)CC2` [Example 55], for which the inhibition at 1 µM was determined as 16%.

On to `O=C(NC1CC1)c1cc2c(s1)-c1ccccc1N(C(=O)c1ccc(NC(=O)c3ncccc3Br)cc1)CC2` [Example 5], for which the inhibition at 1 µM was found to be 79%. Under `O=C(NC1CC1)c1cc2c(s1)-c1ccccc1N(C(=O)c1ccc(NC(=O)c3cccnc3N3CC(F)(F)C3)c(F)c1)CC2` [Example 64] stands 99%; under `C[C@H]1CCCN1c1ncccc1C(=O)Nc1ccc(C(=O)N2CCc3cc(C(=O)NC4CC4)sc3-c3ccccc32)cc1` [Example 40], 98%; under `O=C(NCc1nccs1)c1cc2c(s1)-c1ccccc1N(C(=O)c1ccc(NC(=O)c3cccnc3N3CCCC3)cc1)CC2` [Example 52], 100%. Under `O=C(NC1CC1)c1cc2c(s1)-c1ccccc1N(C(=O)c1ccc(NC(=O)c3cccnc3N3CCC(F)(F)C3)cc1)CC2` [Example 9] stands 100%; under `O=C(NC1CC1)c1cc2c(s1)-c1ccccc1N(C(=O)c1ccc(NC(=O)c3ccccc3I)cc1)CC2` [Example 2], 78%; under `O=C(Nc1ccc(C(=O)N2CCc3cc(C(=O)NC4CC4)sc3-c3ccccc32)cc1)c1cc(N2CCC2)ccn1` [Example 18], 98%.

Consider `Cn1nccc1C(=O)Nc1ccc(C(=O)N2CCc3cc(C(=O)NC4CC4)sc3-c3ccccc32)cc1` [Example 29], for which the inhibition at 1 µM was 22%. Under `O=C(NC1CC1)c1cc2c(s1)-c1ccccc1N(C(=O)c1ccc(NC(=O)c3cccc4nccnc34)cc1)CC2` [Example 25] stands 64%. Under `O=C(NC1CC1)c1cc2c(s1)-c1ccccc1N(C(=O)c1ccc(NC(=O)c3cccnc3N3CC(F)(F)C3)cc1)CC2` [Example 7] stands 100%; under `O=C(NC1CC1)c1cc2c(s1)-c1ccccc1N(C(=O)c1ccc(NC(=O)c3cccnc3N3CC[C@H](F)C3)cc1)CC2` [Example 39], 94%. On to `O=C(NC1CC1)c1cc2c(s1)-c1ccccc1N(C(=O)c1ccc(NC(=O)c3cccnc3C(F)(F)F)cc1F)CC2` [Example 26], for which the inhibition at 1 µM stood at 47%. Next, `Cn1nc(C(=O)Nc2ccc(C(=O)N3CCc4cc(C(=O)NC5CC5)sc4-c4ccccc43)cc2)c2ccccc21` [Example 27]: 41%; `O=C(NCc1ccccn1)c1cc2c(s1)-c1ccccc1N(C(=O)c1ccc(NC(=O)c3cccnc3N3CCCC3)cc1)CC2` [Example 50]: 100%. Next, `O=C(NC1CC1)c1cc2c(s1)-c1ccccc1N(C(=O)c1ccc(NC(=O)c3cccnc3N3CC4(COC4)C3)cc1)CC2` [Example 10]: 100%; `NS(=O)(=O)CCNC(=O)c1cc2c(s1)-c1ccccc1N(C(=O)c1ccc(NC(=O)c3cccnc3N3CCCC3)cc1)CC2` [Example 53]: 1%; `O=C(NC1CC1)c1cc2c(s1)-c1ccccc1N(C(=O)c1ccc(NC(=O)c3cnccc3C(F)(F)F)cc1)CC2` [Example 14]: 100%. Under `O=C(Nc1ccc(C(=O)N2CCc3cc(C(=O)NC4CC4)sc3-c3ccccc32)cc1)c1ccc(N2CCC2)nc1` [Example 31] stands 30%.

With `O=C(NC1CC1)c1cc2c(s1)-c1ccccc1N(C(=O)c1ccc(NC(=O)c3ccccc3-c3ccc(F)cc3)cc1)CC2` [Example 8], the inhibition at 1 µM turned out to be 100%. Under `O=C(NC1CC1)c1cc2c(s1)-c1ccccc1N(C(=O)c1ccc(NC(=O)c3ccccc3-c3cccs3)cc1)CC2` [Example 11] stands 99%; under `O=C(Nc1ccc(C(=O)N2CCc3cc(C(=O)NC4CC4)sc3-c3ccccc32)cc1)c1ccnc(N2CCC2)c1` [Example 21], 94%. Take `O=C(NC1CC1)c1cc2c(s1)-c1ccccc1N(C(=O)c1ccc(NC(=O)c3cccnc3Br)cc1)CC2` [Example 1]: the inhibition at 1 µM was found to be 76%. Take `Cn1ccc2cccc(C(=O)Nc3ccc(C(=O)N4CCc5cc(C(=O)NC6CC6)sc5-c5ccccc54)cc3)c21` [Example 20]: the inhibition at 1 µM came out at 99%. Under `O=C(NCCF)c1cc2c(s1)-c1ccccc1N(C(=O)c1ccc(NC(=O)c3cccnc3N3CCCC3)cc1)CC2` [Example 58] stands 100%; under `O=C(NC1CC1)c1cc2c(s1)-c1ccccc1N(C(=O)c1ccc(NC(=O)c3cccnc3N3CC[C@@H](F)C3)cc1)CC2` [Example 38], 99%. `O=C(NC1CC1)c1cc2c(s1)-c1ccccc1N(C(=O)c1ccc(NC(=O)c3cccnc3N3CCC3)cc1)CC2` [Example 46]: the inhibition at 1 µM turned out to be 98%. Next, `CC(C)(CO)NC(=O)c1cc2c(s1)-c1ccccc1N(C(=O)c1ccc(NC(=O)c3cccnc3N3CCCC3)cc1)CC2` [Example 56]: 93%. Next, `O=C(NC1CC1)c1cc2c(s1)-c1ccccc1N(C(=O)c1ccc(NC(=O)c3ccccc3Cc3ccccc3)cc1)CC2` [Example 17]: 100%. Under `O=C(NC1CC1)c1cc2c(s1)-c1ccccc1N(C(=O)c1ccc(NC(=O)c3ccncc3Br)cc1)CC2` [Example 4] stands 78%.

Turning to `Cc1cc(C(=O)Nc2ccc(C(=O)N3CCc4cc(C(=O)NC5CC5)sc4-c4ccccc43)cc2)c(N2CC(F)(F)C2)nn1` [Example 67], the inhibition at 1 µM was found to be 98%. Under `O=C(NCc1cccs1)c1cc2c(s1)-c1ccccc1N(C(=O)c1ccc(NC(=O)c3cccnc3N3CCCC3)cc1)CC2` [Example 48] stands 100%; under `O=C(NC1CC1)c1cc2c(s1)-c1ccccc1N(C(=O)c1ccc(NC(=O)c3ccccc3N3CCCC3)cc1)CC2` [Example 3], 100%.

With `COc1ccc(C(=O)Nc2ccc(C(=O)N3CCc4cc(C(=O)NC5CC5)sc4-c4ccccc43)cc2)c(C)c1` [Example 47], the inhibition at 1 µM came to 100%. For `O=C(NC1CC1)c1cc2c(s1)-c1ccccc1N(C(=O)c1ccc(NC(=O)c3cccnc3N3CCC[C@H]3C(F)(F)F)cc1)CC2` [Example 42], the inhibition at 1 µM turned out to be 99%. Under `C[C@@H]1CCCN1c1ncccc1C(=O)Nc1ccc(C(=O)N2CCc3cc(C(=O)NC4CC4)sc3-c3ccccc32)cc1` [Example 6] stands 100%; under `O=C(N[C@@H]1CCOC1)c1cc2c(s1)-c1ccccc1N(C(=O)c1ccc(NC(=O)c3cccnc3N3CCCC3)cc1)CC2` [Example 57], 95%; under `O=C(Nc1ccc(C(=O)N2CCc3cc(C(=O)N4CCCC4)sc3-c3ccccc32)cc1)c1cccnc1N1CCCC1` [Example 49], 30%. Under `O=C(NC1CC1)c1cc2c(s1)-c1ccccc1N(C(=O)c1ccc(NC(=O)c3ccncc3N3CC(F)C3)cc1)CC2` [Example 63] stands 99%; under `COc1ccc(C(=O)Nc2ccc(C(=O)N3CCc4cc(C(=O)NC5CC5)sc4-c4ccccc43)cc2)cc1` [Example 15], 97%. Under `Cn1ccnc1CNC(=O)c1cc2c(s1)-c1ccccc1N(C(=O)c1ccc(NC(=O)c3cccnc3N3CCCC3)cc1)CC2` [Example 62] stands 90%. For `Cc1cc(C(=O)Nc2ccc(C(=O)N3CCc4cc(C(=O)NC5CC5)sc4-c4ccccc43)cc2)c(N2CCCC2)nn1` [Example 65], the inhibition at 1 µM was found to be 95%. Under `COC1CN(C(=O)c2cc3c(s2)-c2ccccc2N(C(=O)c2ccc(NC(=O)c4cccnc4N4CCCC4)cc2)CC3)C1` [Example 59] stands 43%; under `Cc1cc(C(=O)Nc2ccc(C(=O)N3CCc4cc(C(=O)NC5CC5)sc4-c4ccccc43)cc2)n(C(C)(C)C)n1` [Example 24], 78%; under `Cc1ccccc1C(=O)N1CCC(C(=O)Nc2ccc(C(=O)N3CCc4cc(C(=O)NC5CC5)sc4-c4ccccc43)cc2)CC1` [Example 28], 15%.

Consider `O=C(NC1CC1)c1cc2c(s1)-c1ccccc1N(C(=O)c1ccc(NC(=O)c3cccnc3N3CC[C@@H](O)C3)cc1)CC2` [Example 44], for which the inhibition at 1 µM turned out to be 77%. Next, `O=C(NC1CC1)c1cc2c(s1)-c1ccccc1N(C(=O)c1ccc(NC(=O)c3cccnc3N3CCCC3)cc1)CC2` [Example 37]: 100%; `NC(=O)CCNC(=O)c1cc2c(s1)-c1ccccc1N(C(=O)c1ccc(NC(=O)c3cccnc3N3CCCC3)cc1)CC2` [Example 60]: 35%. Under `O=C(NC1CC1)c1cc2c(s1)-c1ccccc1N(C(=O)c1ccc(NS(=O)(=O)c3ccccc3)cc1)CC2` [Example 34] stands 90%; under `O=C(NC1CC1)c1cc2c(s1)-c1ccccc1N(C(=O)c1ccc(NC(=O)c3cccnc3N3CC(F)C3)cc1)CC2` [Example 45], 100%.
